Blank lines part the entries; values can stand above or below the molecule they belong to.
Test system: LG0567-F671-PDC complex spheroids viability
Experiment: Anticancer human tumor LG0567-F671-PDC patient-derived lung adenocarcinoma cell line growth inhibition [RAS]
Settings: for viability, T/C: stronger effect = lower value
Method in brief: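 Multi-cell-type spheroids: tumor cells plus HUVEC endothelial cells and mesenchymal stem cells. RAS-pathway inhibitors were combined with targeted agents, each dosed in half-log steps down from clinical Cmax, or from 10 microM when Cmax was unknown.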

[1] = curve of first compound, second compound 0.0316 µM
[2] = curve of first compound, second compound 0.1 µM
[3] = curve of first compound, second compound 0.316 µM
[4] = curve of first compound, second compound 1 µM
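Further: spheroids exposed to compound for seven days before readout.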
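Wherever IC50 is given: luminescence signal used as a proxy for viable cells.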

IC50 [1]: 205 nM
IC50 [2]: 211 nM
IC50 [3]: 38.6 nM
IC50 [4]: < 31.6 nM
IC50 (curve of first compound, second compound 3.16 µM): < 31.6 nM
IC50 (curve of first compound, second compound 10 µM): < 31.6 nM
Structure (SMILES): CC(Nc1ccc2c(c1)OCCn1cc(N3C(=O)OCC3C(F)F)nc1-2)C(N)=O (stereo unspecified) + C#Cc1c(F)ccc2cc(O)cc(-c3ncc4c(N5CC6CCC(C5)N6)nc(OCC56CCCN5CC(F)C6)nc4c3F)c12
viability, T/C (second compound 0.0316 µM, first compound 0.0316 µM): 77.6%
viability, T/C (second compound 0.0316 µM, first compound 0.1 µM): 56.2%
viability, T/C (second compound 0.0316 µM, first compound 0.316 µM): 46.9%
viability, T/C (second compound 0.0316 µM, first compound 1 µM): 38.2%
viability, T/C (second compound 0.0316 µM, first compound 3.16 µM): 35%
viability, T/C (second compound 0.0316 µM, first compound 10 µM): 31.9%
viability, T/C (second compound 0.1 µM, first compound 0.0316 µM): 73.5%
viability, T/C (second compound 0.1 µM, first compound 0.1 µM): 62.1%
viability, T/C (second compound 0.1 µM, first compound 0.316 µM): 43.2%
viability, T/C (second compound 0.1 µM, first compound 1 µM): 32.1%
viability, T/C (second compound 0.1 µM, first compound 3.16 µM): 30.7%
viability, T/C (second compound 0.1 µM, first compound 10 µM): 26%
viability, T/C (second compound 0.316 µM, first compound 0.0316 µM): 53.1%
viability, T/C (second compound 0.316 µM, first compound 0.1 µM): 38%
viability, T/C (second compound 0.316 µM, first compound 0.316 µM): 31.3%
viability, T/C (second compound 0.316 µM, first compound 1 µM): 30.3%
viability, T/C (second compound 0.316 µM, first compound 3.16 µM): 28.4%
viability, T/C (second compound 0.316 µM, first compound 10 µM): 22.2%
viability, T/C (second compound 1 µM, first compound 0.0316 µM): 26.7%
viability, T/C (second compound 1 µM, first compound 0.1 µM): 25.6%
viability, T/C (second compound 1 µM, first compound 0.316 µM): 20.9%
viability, T/C (second compound 1 µM, first compound 1 µM): 19.1%
viability, T/C (second compound 1 µM, first compound 3.16 µM): 18.3%
viability, T/C (second compound 1 µM, first compound 10 µM): 14.8%
viability, T/C (second compound 3.16 µM, first compound 0.0316 µM): 16.6%
viability, T/C (second compound 3.16 µM, first compound 0.1 µM): 14.6%
viability, T/C (second compound 3.16 µM, first compound 0.316 µM): 11.5%
viability, T/C (second compound 3.16 µM, first compound 1 µM): 12.6%
viability, T/C (second compound 3.16 µM, first compound 3.16 µM): 10%
viability, T/C (second compound 3.16 µM, first compound 10 µM): 7.52%
viability, T/C (second compound 10 µM, first compound 0.0316 µM): 9.27%
viability, T/C (second compound 10 µM, first compound 0.1 µM): 6.91%
viability, T/C (second compound 10 µM, first compound 0.316 µM): 5.66%
viability, T/C (second compound 10 µM, first compound 1 µM): 5.21%
viability, T/C (second compound 10 µM, first compound 3.16 µM): 5.4%
viability, T/C (second compound 10 µM, first compound 10 µM): 4.6%

IC50 (curve of first compound, second compound 0.00316 µM): < 0.949 nM
IC50 (curve of first compound, second compound 0.01 µM): < 0.949 nM
IC50 [1]: < 0.949 nM
IC50 [2]: < 0.949 nM
IC50 [3]: < 0.949 nM
IC50 [4]: < 0.949 nM
Structure (SMILES): CC1(C)CCC(Nc2ncc(C(F)(F)F)c(-c3c[nH]c4c(P(C)(C)=O)c(C#N)ccc34)n2)CN1 (stereo unspecified) + C=CC(=O)N1CCN(c2nc(OCC3CCCN3C)nc3c(F)c(-c4nc(N)cc(C)c4C(F)(F)F)c(Cl)cc23)C(C)C1
viability, T/C (second compound 0.00316 µM, first compound 0.000949 µM): 12.2%
viability, T/C (second compound 0.00316 µM, first compound 0.003 µM): 11.3%
viability, T/C (second compound 0.00316 µM, first compound 0.00949 µM): 11.2%
viability, T/C (second compound 0.00316 µM, first compound 0.03 µM): 13.6%
viability, T/C (second compound 0.00316 µM, first compound 0.0949 µM): 12.2%
viability, T/C (second compound 0.00316 µM, first compound 0.3 µM): 11.8%
viability, T/C (second compound 0.01 µM, first compound 0.000949 µM): 11.9%
viability, T/C (second compound 0.01 µM, first compound 0.003 µM): 10.2%
viability, T/C (second compound 0.01 µM, first compound 0.00949 µM): 10.1%
viability, T/C (second compound 0.01 µM, first compound 0.03 µM): 10.1%
viability, T/C (second compound 0.01 µM, first compound 0.0949 µM): 13%
viability, T/C (second compound 0.01 µM, first compound 0.3 µM): 12.4%
viability, T/C (second compound 0.0316 µM, first compound 0.000949 µM): 9.75%
viability, T/C (second compound 0.0316 µM, first compound 0.003 µM): 9.55%
viability, T/C (second compound 0.0316 µM, first compound 0.00949 µM): 10.2%
viability, T/C (second compound 0.0316 µM, first compound 0.03 µM): 11.2%
viability, T/C (second compound 0.0316 µM, first compound 0.0949 µM): 10.7%
viability, T/C (second compound 0.0316 µM, first compound 0.3 µM): 10.8%
viability, T/C (second compound 0.1 µM, first compound 0.000949 µM): 10.9%
viability, T/C (second compound 0.1 µM, first compound 0.003 µM): 9.77%
viability, T/C (second compound 0.1 µM, first compound 0.00949 µM): 10.7%
viability, T/C (second compound 0.1 µM, first compound 0.03 µM): 10.9%
viability, T/C (second compound 0.1 µM, first compound 0.0949 µM): 11.5%
viability, T/C (second compound 0.1 µM, first compound 0.3 µM): 10.2%
viability, T/C (second compound 0.316 µM, first compound 0.000949 µM): 10%
viability, T/C (second compound 0.316 µM, first compound 0.003 µM): 9.73%
viability, T/C (second compound 0.316 µM, first compound 0.00949 µM): 10.6%
viability, T/C (second compound 0.316 µM, first compound 0.03 µM): 10.2%
viability, T/C (second compound 0.316 µM, first compound 0.0949 µM): 12.2%
viability, T/C (second compound 0.316 µM, first compound 0.3 µM): 11.4%
viability, T/C (second compound 1 µM, first compound 0.000949 µM): 10.2%
viability, T/C (second compound 1 µM, first compound 0.003 µM): 11%
viability, T/C (second compound 1 µM, first compound 0.00949 µM): 10.4%
viability, T/C (second compound 1 µM, first compound 0.03 µM): 11.1%
viability, T/C (second compound 1 µM, first compound 0.0949 µM): 12.4%
viability, T/C (second compound 1 µM, first compound 0.3 µM): 12.3%

IC50 (curve of compound): > 1000 nM
Structure (SMILES): CCN1CCN(Cc2ccc(Nc3ncc(F)c(-c4cc(F)c5nc(C)n(C(C)C)c5c4)n3)nc2)CC1
viability, T/C (compound 0.00316 µM): 94.3% [middle of 4 runs]
viability, T/C (compound 0.01 µM): 85% [middle of 4 runs]
viability, T/C (compound 0.0316 µM): 82.3% [middle of 4 runs]
viability, T/C (compound 0.1 µM): 80.7% [middle of 4 runs]
viability, T/C (compound 0.316 µM): 75.6% [middle of 4 runs]
viability, T/C (compound 1 µM): 67% [middle of 4 runs]

From PubChem BioAssay AID2060889 (Molecular Pharmacology Branch, DTP, NCI, 2025)
